The test addresses T1, Vaccinia virus capping enzyme (VCE) (Vaccinia virus, UniProt P04298).
T1 construct: purchased CellScript ScriptCap m^7G Capping System (catalogue number not given)
It is filed as biochemical. The arrangement: key to Capping efficiency: A: capping was observed; B: either capping was not observed, or the capping efficiency was low.
On to `Nc1nc2c(ncn2[C@H]2CC[C@@H](COP(=O)(O)OP(=O)(O)OP(=O)(O)O)O2)c(=O)[nH]1` [compound 12, 2′,3′-Dideoxyguanosine-5′-triphosphate], for which the Capping efficiency result is listed as “B”.
On to `Nc1nc2c(C3OC(COP(=O)(O)OP(=O)(O)OP(=O)(O)O)C(O)C3O)scc2c(=O)[nH]1` (stereo not drawn) [compound 5, Thienoguanosine-5′-Triphosphate], for which the Capping efficiency entry is “B”.
With `Nc1nc2c(ccn2[C@@H]2O[C@H](COP(=O)(O)OP(=O)(O)OP(=O)(O)O)[C@@H](O)[C@H]2O)c(=O)[nH]1` [compound 4, 7-Deazaguanosine-5′-Triphosphate], the Capping efficiency result is “B”.
Take “2′/3′-O-(2-Aminoethyl-carbamoyl)-Guanosine-5′-triphosphate [compound 22]”: the Capping efficiency entry is recorded as “A”.
Still for that read-out and setting: in the case of `Nc1ncnc2c1ncn2[C@@H]1O[C@H](COP(=O)(O)OP(=O)(O)OP(=O)(O)O)[C@@H](O)[C@H]1O` [compound 8, Adenosine-5′-triphosphate] it was “B”.
As to `C[n+]1cn([C@@H]2O[C@H](COP(=O)(O)OP(=O)(O)OP(=O)(O)O)[C@@H](O)[C@H]2O)c2nc(N)[nH]c(=O)c21` [compound 1, N7-Methylguanosine-5′-triphosphate], the Capping efficiency result is on record as “A” and the “Capping efficiency (in words)” value is “favorable”.
Take `Nc1[nH]c(=O)nc2c1ncn2[C@@H]1O[C@H](COP(=O)(O)OP(=O)(O)OP(=O)(O)O)[C@@H](O)[C@H]1O` [compound 7, Isoguanosine-5′-triphosphate]: the Capping efficiency result was “B”.
Regarding `O=c1[nH]c(=O)c2ncn([C@@H]3O[C@H](COP(=O)(O)OP(=O)(O)OP(=O)(O)O)[C@@H](O)[C@H]3O)c2[nH]1` [compound 10, Xanthosine-5′-Triphosphate], the Capping efficiency result was “B”.

(Values after patent US20220170062A1, “RNA CAPPING METHOD, PRODUCTION METHOD FOR MODIFIED RNA, AND MODIFIED RNA” (priority 2019, published 2022).)
